Experimental data taken from ChEMBL document CHEMBL1121434, “4-[(Aminoalkyl)amino]-1,2-dimethoxynaphthalenes as antimalarial agents” (J Med Chem, 1980).
The source made the active and inactive calls. The rule behind the calls is not given here.

Columns and labels:
[1] = system: Monkey; test: Tested for radical curative activity in monkeys infected with Plasmodium cynomolgi at 0.316 (mg/kg)/day dose; I = inactive; format: functional, organism-based; conditions: Cercopithecidae
[2] = system: Monkey; test: Tested for radical curative activity in monkeys infected with Plasmodium cynomolgi at 10 (mg/kg)/day dose; T = toxic; format: organism-based; conditions: cercopithecidae, in vivo
[3] = system: Monkey; test: Tested for radical curative activity in monkeys infected with Plasmodium cynomolgi at 1 (mg/kg)/day dose; I = inactive; format: functional, organism-based; conditions: Cercopithecidae
[4] = system: Monkey; test: Tested for radical curative activity in monkeys infected with Plasmodium cynomolgi at 1.0 (mg/kg)/day dose; I = inactive; format: functional, organism-based; conditions: Cercopithecidae
[5] = system: Monkey; test: Tested for radical curative activity in monkeys infected with Plasmodium cynomolgi I = inactive; format: functional, organism-based; conditions: Cercopithecidae
[6] = system: Monkey; test: Tested for radical curative activity in monkeys infected with Plasmodium cynomolgi at 10.0 (mg/kg)/day dose; C = curative; format: functional, organism-based; conditions: Cercopithecidae

In the case of `CCC(CCCN)Nc1cc(OC)c(OC)c2ccccc12` (stereo not drawn), the Activity [1] is reported as “inactive”, the Activity [2] is reported as “Toxic” and the Activity [3] is reported as “inactive”.

For `COc1cc(NCCCC(C)N)c2ccccc2c1OC` (stereo not drawn), the Activity [4] was “inactive”.

With `CCN(CC)CCCC(C)Nc1cc(OC)c(OC)c2ccccc12` (stereo not drawn) the Activity [5] was “inactive”.

In the case of `COc1cc(NC(C)CCCN)c2ccccc2c1OC` (stereo not drawn), the Activity [4] is reported as “inactive”.

In the case of `COc1cc(NCCCC(C)N)c2cc(Br)ccc2c1OC` (stereo not drawn), the Activity [4] is reported as “inactive” and the Activity [6] is reported as “Curative”.
